Several values for one entry are separate records, joined by “and”; a condition that tells them apart may be missing. Identical values can stand only once. Like-named read-outs stand apart in the source and are kept apart here.
Assays:
[1] = system: MCF-10A; settings: for percentage of survival: 0.08 µg/mL, 72 h; for Potency compared to control POD: relative to POD; for Potency compared to control VP-16: relative to VP-16
[2] = system: MCF-7; test: Clonogenicity (recovery) assay, 72 h post-treatment, SRB; settings: for percentage of recovery: 72 h post-treatment; for effect on proliferation and recovery after treatment: in words
[3] = system: BT-549; settings: for percentage of survival: 72 h; for Potency compared to control POD: BT-549, relative to POD; for Potency compared to control VP-16: BT-549, relative to VP-16; for Selectivity index: IC50 MCF-10A / IC50 BT-549; for IC50: read-out: Cytotoxic activity IC50, BT-549, 72 h, mean of three independent experiments ± S.D.
[4] = system: MDA-MB-231; test: Clonogenicity (recovery) assay, 72 h post-treatment, SRB; settings: for percentage of recovery: 72 h post-treatment; for effect on proliferation and recovery after treatment: in words
[5] = in vitro; settings: human
[6] = system: MCF-7; settings: for Selectivity index: IC50 MCF-10A / IC50 MCF-7; for percentage of survival: 72 h; for Potency compared to control POD: MCF-7, relative to POD; for Potency compared to control VP-16: MCF-7, relative to VP-16; for IC50: read-out: Cytotoxic activity IC50, MCF-7, 72 h, mean of three independent experiments ± S.D.
[7] = system: BT-549; test: Clonogenicity (recovery) assay, 72 h post-treatment, SRB; settings: for percentage of recovery: 72 h post-treatment; for effect on proliferation and recovery after treatment: in words
[8] = system: MDA-MB-231; settings: for Selectivity index: IC50 MCF-10A / IC50 MDA-MB-231; for percentage of survival: 72 h; for Potency compared to control POD: MDA-MB-231, relative to POD; for Potency compared to control VP-16: MDA-MB-231, relative to VP-16; for IC50: read-out: Cytotoxic activity IC50, MDA-MB-231, 72 h, mean of three independent experiments ± S.D.
[9] = system: MCF-10A; test: Clonogenicity (recovery) assay, 72 h post-treatment, SRB; settings: for percentage of recovery: 0.08 µg/mL, 72 h post-treatment; for effect on proliferation and recovery after treatment: in words
[10] = system: anthrax lethal toxin; settings: qHTS, ME-180 cells, in words; cited from earlier work
[11] = system: human protein tyrosyl-DNA phosphodiesterase 1 (TDP1); design: method as in ref 29 = [29]; 29. NCBI, National Center for Biotechnology Information PubChem BioAssay Database 2013 AID=686981 Available online: https://pubchem.ncbi.nlm.nih.gov/bioassay/686981 (accessed on 30 March 2016); settings: qHTS, DT40 cell line, in words; cited from earlier work
[12] = Water solubility (observation in culture medium); assay type: physicochemical; settings: in words
[13] = system: MCF-7, MDA-MB-231, BT-549, and MCF-10A; test: Cytotoxicity, clonogenicity and selectivity over the panel of breast cell lines; assay type: cell-based, human; settings: in words, SI ≥ 10 selective
[14] = Cytotoxic activity IC50, MCF-10A, 72 h, mean of three independent experiments ± S.D.

SMILES	percentage of survival [1]	Potency compared to control POD [1]	Potency compared to control VP-16 [1]	percentage of recovery ([2]; MCF-7, 0.08 µg/mL)	effect on proliferation and recovery after treatment ([2]; MCF-7, 10, 2, and 0.4 µg/mL)	percentage of survival ([3]; BT-549, 0.08 µg/mL)	Potency compared to control POD [3]	Potency compared to control VP-16 [3]	Selectivity index [3]	IC50 [3]	percentage of recovery ([4]; MDA-MB-231, 0.4 µg/mL)	effect on proliferation and recovery after treatment ([4]; MDA-MB-231, 10 and 2 µg/mL)	Selectivity index [6]	percentage of survival ([6]; MCF-7, 0.08 µg/mL)	IC50 [6]	Selectivity index [8]	percentage of survival ([8]; MDA-MB-231, 0.08 µg/mL)	percentage of survival ([8]; MDA-MB-231, 0.4 µg/mL)	IC50 [8]	percentage of recovery ([9]; MCF-10A)	also measured
COc1ccc([C@@H]2c3cc4c(c(OC)c3C[C@H]3COC(=O)[C@@H]32)OCO4)cc1OC [Compound 1, 5′-demethoxy-β-peltatin-A-methylether]	61% ± 7.9%	0.144	0.341	172% ± 24.5%	dose-dependent cytotoxic effect at concentrations of 10, 2, and 0.4 µg/mL, which persisted after removal of the treatment	82% ± 15.7%	0.004	0.126	0.11	1.26 µM and 1.2 µM and 1.27 µM	49% ± 18.6%	inhibited proliferation and blocked recovery	0.02	130% ± 18.55%	7.22 µM and 7.2 µM	0.06	96% ± 6.9%	28% ± 3.1%	2.44 µM and 2.4 µM	83% ± 3.3%	IC50 ([1]; read-out: Cytotoxic activity IC50, 72 h, mean of three independent experiments ± S.D.): 0.137 ± 0.015 µM; percentage of recovery ([4]; MDA-MB-231, 0.08 µg/mL): 184% ± 6.4%; IC50 at 72 h [5, 14]: 0.13 µM; Potency compared to control POD [6]: 0.002; Potency compared to control VP-16 [6]: 0.017; percentage of recovery ([7]; BT-549, 0.08 µg/mL): 124% ± 9.7%; effect on proliferation and recovery after treatment ([7]; BT-549, 10, 2, and 0.4 µg/mL): dose-dependent cytotoxic effect at concentrations of 10, 2, and 0.4 µg/mL, which persisted after removal of the treatment; Potency compared to control POD [8]: 0.010; Potency compared to control VP-16 [8]: 0.016; effect on proliferation and recovery after treatment ([9]; MCF-10A, 10, 2, and 0.4 µg/mL): dose-dependent cytotoxic effect at concentrations of 10, 2, and 0.4 µg/mL, which persisted after removal of the treatment
COc1cc([C@@H]2c3cc4c(cc3[C@H](OC(C)=O)[C@H]3COC(=O)[C@H]23)OCO4)cc(OC)c1OC [Compound 2, acetylpodophyllotoxin]	61% ± 7.8%	0.062	0.147	209% ± 12.4%	dose-dependently inhibited the proliferation and the recovery of cells	96% ± 5.5%	0.465	14.1 and 14.151		0.011 ± 0.004 µM	36% ± 16.8%	completely inhibited proliferation and prevented recovery	2.42	121% ± 10.8%	0.132 ± 0.017 µM	1.77	101% ± 5.7%	21% ± 0.6%	0.18 ± 0.003 µM	85% ± 4.5%	effect on anthrax lethal toxin internalization [10]: interferes in the internalization process; percentage of survival ([3]; BT-549, 0.4 µg/mL): 61% ± 10.6%; selectivity according to the selectivity criteria (SI ≥ 10 selective) ([3]; BT-549 vs MCF-10A, in words): selective compound; percentage of recovery ([4]; MDA-MB-231, 0.8 µg/mL): 194% ± 14.7%; IC50 at 72 h [5, 14]: 0.318 ± 0.012 µM; Potency compared to control POD [6]: 0.135; Potency compared to control VP-16 [6]: 0.942; inhibitory activity against TDP1 [11]: inhibitory activity; percentage of recovery ([7]; BT-549, 0.4 µg/mL): around 114% ± 18.5%; percentage of recovery ([7]; BT-549, 0.8 µg/mL (same concentrations)): ~191% ± 27.1%; effect on proliferation and recovery after treatment ([7]; BT-549, 10 and 2 µg/mL): completely inhibited proliferation and prevented recovery; Potency compared to control POD [8]: 0.136; Potency compared to control VP-16 [8]: 0.217; effect on proliferation and recovery after treatment ([9]; MCF-10A, 10, 2, and 0.4 µg/mL): dose-dependently inhibited the proliferation and the recovery of cells
COc1cc(C2=C3C(=O)OC[C@@H]3[C@@H](OC(C)=O)c3cc4c(cc32)OCO4)cc(OC)c1OC [Compound 4, 7′,8′-dehydroacetylpodophyllotoxin]	about 55% ± 17.2%	0.042	0.100	177% ± 15.6%		74% ± 7.4%	0.086	2.6 and 2.604	7.62		75% ± 12.2%	inhibitory effect on the survival and recovery	1.32	96% ± 13.5%	0.35 µM and 0.353 µM	2.90	93% ± 6.9%	57% ± 1.4%	0.16 µM and 0.161 µM	160% ± 21%	percentage of recovery ([2]; MCF-7, 0.4 µg/mL): 57% ± 14.5%; percentage of recovery ([2]; MCF-7, 2 µg/mL): 29% ± 0.7%; percentage of survival ([3]; BT-549, 0.4 µg/mL): 48% ± 8.8%; percentage of recovery ([4]; MDA-MB-231, 0.08 µg/mL): 180% ± 13.5%; water solubility [12]: low water solubility; IC50 at 72 h [5, 14]: 0.468 ± 0.002 µM; percentage of survival ([6]; MCF-7, 0.4 µg/mL): 21% ± 7.2%; percentage of survival ([6]; MCF-7, 2 µg/mL): 11% ± 7.6%; Potency compared to control POD [6]: 0.050; Potency compared to control VP-16 [6]: 0.351; percentage of recovery ([7]; BT-549, 0.08 µg/mL): 176% ± 18%; percentage of recovery ([7]; BT-549, 0.4 µg/mL): 98% ± 27.9%; effect on proliferation and recovery after treatment ([7]; BT-549, 10 and 2 µg/mL): inhibitory effect on the survival and recovery; Potency compared to control POD [8]: 0.151; Potency compared to control VP-16 [8]: 0.242
COc1cc([C@@H]2c3cc4c(cc3[C@H](O)[C@H]3COC(=O)[C@H]23)OCO4)cc(OC)c1OC [POD, Podophyllotoxin, reference compound]										0.005 ± 0.001 µM			1.11		0.018 ± 0.001 µM	0.81			0.024 ± 0.006 µM		selectivity in the selectivity analysis [13]: non-selective activity; survival ([1]; even at high concentrations (10, 2, 0.4, 0.08, and 0.016 µg/mL)): about 20%; effect on proliferation and recovery after treatment ([2]; MCF-7, different POD concentrations): arrest of cell proliferation, which persisted even after the toxic agent was removed; effect on proliferation and recovery after treatment ([4]; MDA-MB-231, different POD concentrations): arrest of cell proliferation, which persisted even after the toxic agent was removed; IC50 at 72 h [5]: 0.02 ± 0.008 µM; effect on proliferation and recovery after treatment ([7]; BT-549, different POD concentrations): arrest of cell proliferation, which persisted even after the toxic agent was removed; effect on proliferation and recovery after treatment ([9]; MCF-10A, different POD concentrations): arrest of cell proliferation, which persisted even after the toxic agent was removed
COc1cc([C@@H]2c3cc4c(cc3[C@@H](O[C@@H]3O[C@@H]5CO[C@@H](C)O[C@H]5[C@H](O)[C@H]3O)[C@H]3COC(=O)[C@H]23)OCO4)cc(OC)c1O [VP-16, etoposide, reference compound]	46% ± 2.8%			183% ± 7.4%	did not recover proliferation after treatment	67% ± 7.5%			0.29	0.16 ± 0.01 µM	98% ± 16.1%	caused inhibition of proliferation and cell recovery	0.38	71% ± 20.7%	0.124 ± 0.026 µM	1.20	82% ± 5.6%	48% ± 2.4%	0.038 ± 0.004 µM	79% ± 5.1%	selectivity in the selectivity analysis [13]: non-selective compound; percentage of recovery ([4]; MDA-MB-231, 0.08 µg/mL): 160% ± 7.4%; IC50 at 72 h ([5]; MCF-10A cells, Cytotoxic activity IC50, MCF-10A, 72 h, mean of three independent experiments ± S.D.): 0.047 ± 0.009 µM; percentage of recovery ([7]; BT-549, 0.08 µg/mL): 101% ± 11.7%; effect on proliferation and recovery after treatment ([7]; BT-549, 10, 2, and 0.4 µg/mL): did not recover proliferation after treatment; effect on proliferation and recovery after treatment ([9]; MCF-10A, 10, 2, and 0.4 µg/mL): did not recover proliferation after treatment

From article PMC6274026 (Molecules, 2016)
